Test results from article PMC8557901 (Microbiology Spectrum, 2021).

Assays:
[1] = tested on: P. falciparum F32-ART5 (artemisinin-resistant); assay: Standard in vitro chemosensitivity assay (hypoxanthine uptake), F32-ART5; format: cell-based; conditions: Plasmodium falciparum, F32, 48 h, read-out: Mean EC50 ± SD
Description: (§1) The Plasmodium falciparum artemisinin-resistant strain F32-ART5 and its twin artemisinin-sensitive line F32-TEM ([30], [31]) were cultivated at 37°C with 5% CO2 in human red blood cells (EFS [French Blood Bank]) diluted to 2% hematocrit in RPMI 1640 medium supplemented with 5% human serum (EFS) as previously reported ([47]).
(§2) In vitro susceptibility of P. falciparum parasites was determined by using the standard hypoxanthine uptake inhibition assay as described previously ([51]) with some modifications ([52]). After D-sorbitol treatment, parasites synchronized at the ring stage were exposed for 48 h, with [^3H]hypoxanthine (Perkin Elmer, France), to a range of concentrations of the different tested compounds. […] Each result represents 3 independent experiments.

[2] = tested on: P. falciparum F32-TEM (artemisinin-sensitive); assay: Standard in vitro chemosensitivity assay (hypoxanthine uptake), F32-TEM; format: cell-based; conditions: Plasmodium falciparum, F32, 48 h, read-out: Mean EC50 ± SD
Description: as §1, §2

[3] = tested on: P. falciparum F32-ART5 and F32-TEM; assay: Recrudescence assay F32-ART5 versus F32-TEM; format: cell-based, Plasmodium falciparum; conditions: 48 h drug exposure; M1 2.5 and 10 μM; artemisinin 18 μM
Description: as §1
A recrudescence assay was performed to evaluate the ability of the F32-ART5 parasite line to survive drug exposure in comparison to that of the F32-TEM parasite line ([30], [31]) in order to evaluate the risk of cross-resistance between artemisinin and M1. D-Sorbitol-synchronized ring-stage parasites at 3% parasitemia (2% hematocrit) were exposed to the drug for 48 h. After drug exposure, parasite cultures were washed with RPMI 1640 medium and replaced in normal drug-free culture conditions. The time to parasite recrudescence was determined as the time required to reach initial parasitemia. […] Each experiment, performed in parallel for F32-ART5 and F32-TEM cultivated under the same conditions to generate paired results, was carried out at least three times independently and data statistically analyzed.
A statistical analysis (log-rank test) was carried out on data from the recrudescence assay and the QSA using a Kaplan-Meier survival analysis considering censored data. The final event was defined as the time necessary for cultures to reach initial parasitemia. […]

[4] = tested on: P. falciparum strain K1 in RBC; assay: In vitro chemosensitivity assay, blood stage P. falciparum K1 (SYBR green I); format: cell-based; conditions: Plasmodium falciparum, K1, 72 h, read-out: EC50 (μM) for P. falciparum strain K1 in RBC
Description: Maintenance in continuous culture was done as described previously by Trager and Jensen ([46]). Cultures were maintained in fresh A+ human erythrocytes (EFS [French Blood Bank]) at 2.5% hematocrit in complete medium (RPMI 1640 with 25 mM HEPES, 25 mM NaHCO3, 10% A+ human serum) at 37°C under a reduced-O2 atmosphere (gas mixture of 10% O2, 5% CO2, and 85% N2). Parasitemia was maintained daily between 1% and 3%. The P. falciparum drug susceptibility test was carried out by comparing quantities of DNA in treated and control cultures of parasites in human erythrocytes according to a SYBR green I fluorescence-based method ([50]) using a 96-well fluorescence plate reader. Compounds, previously dissolved in DMSO (final concentration, less than 0.5% vol/vol), were incubated in a total assay volume of 200 μl of synchronized culture suspension (2% hematocrit and 0.4% parasitemia) for 72 h in a humidified atmosphere (85% N2, 10% O2, and 5% CO2) at 37°C in 96-well flat-bottom plates. Duplicate assays were performed for each sample. After incubation, plates were frozen at −20°C for 24 h. Then, the frozen plates were thawed for 1 h at 37°C. Fifteen microliters of each sample was transferred to 96-well flat-bottom black plates (Greiner Bio-one) already containing 15 μl of the SYBR green I lysis buffer (2× SYBR green I, 20 mM Tris base, pH 7.5, 20 mM EDTA, 0.008% [wt/vol] saponin, 0.08% [wt/vol] Triton X-100). […] Plates were incubated for 15 min at 37°C and then read on a Tecan Infinite F-200 spectrophotometer with excitation and emission wavelengths at 485 and 535 nm, respectively. […] EC50K1 values represent the mean values calculated from three independent experiments.

Plasmodium berghei = tested on: Plasmodium berghei; parameters: method as in PMID 25791675; conditions: 2.5 mg/kg twice a day for 3 days; untreated group 9%; cited from earlier work
[5] = tested on: P. falciparum F32-ART5 quiescent parasites; assay: Quiescent-stage survival assay (QSA); format: cell-based, Plasmodium falciparum; conditions: artemisinin 3 μM 6 h then artemisinin + CQ 200 nM versus artemisinin alone
Description: as §1
Chemosensitivity evaluation of artemisinin-resistant parasites at the quiescent stage was performed on the F32-ART5 strain using the quiescent-stage survival assay (QSA) ([33]). D-Sorbitol-synchronized ring-stage parasites at 3% parasitemia (2% hematocrit) were first exposed to 3 μM artemisinin for 6 h to induce quiescence of artemisinin-resistant parasites. Then, quiescent parasites were exposed or not (as a control condition) to 2.5 μM M1 for 24 h. After drug exposure, parasite cultures were washed with RPMI 1640 medium and replaced in normal drug-free culture conditions. The time to parasite recrudescence was determined as the time required to reach initial parasitemia. […] In each experiment, results obtained with the condition “artemisinin 3 μM 6 h/artemisinin 3 μM 24 h” were compared to those obtained with the condition “artemisinin 3 μM 6 h/(artemisinin 3 μM + M1 2.5 μM) 24 h” in order to determine the delay in recrudescence time. […] Each experiment was carried out three times independently, and data statistically analyzed. […]

Structure (SMILES)	EC50 [1] [nM]	EC50 [2] [nM]	recrudescence of F32-ART5 versus F32-TEM (cross-resistance with artemisinin) [3]	EC50 [4] [µM]	parasitemia at day 4 (Plasmodium berghei) [%]	difference in recrudescence times versus artemisinin alone [5]
C[C@@H]1CC[C@H]2[C@@H](C)C(=O)O[C@@H]3O[C@@]4(C)CC[C@@H]1[C@]32OO4 [Artemisinin, reference compound]	11 ± 0.5	11.1 ± 1.6	faster recrudescence for F32-ART5 than for F32-TEM	–	–	–
CCN(CC)CCCC(C)Nc1ccnc2cc(Cl)ccc12 (stereo not drawn) [Chloroquine, reference compound]	–	–	–	0.8	1.5	no difference in the recrudescence times
